For experiment [1], the system named is A549 cells. The experiment can be described thus: Cell proliferation PAD assay, A549. It counts as cell-based. Particulars: Homo sapiens, 48 hours. How it is done:
(§1) Cell lines used are available from American Type Culture Collection (ATCC), for example, cell cultures containing A549 (ATCC# CCL-185), HeLa (ATCC# CCL-2), HCT116 ATTC# CCL-247), and H1299 (ATCC# CRL-5803) cells were maintained in T175 flasks following the ATCC recommended media and handling procedures. […] A 20,000 cells/ml solution was made for plating. Cells were plated in black Packard 96 well plates by placing 100 μl per well (2,000 cells per well). […] The definitions of the cell types used are as follows: A549 is lung carcinoma; HI 299 is non-small cell lung carcinoma; HI 155 is non-small cell lung carcinoma; AsPC-1 is pancreatic adenocarcinoma; Caov-3 is ovarian adenocarcinoma; COLO 205 is colorectal adenocarcinoma; DLD-1 colorectal adenocarcinoma; HCT116 is colorectal carcinoma; DU 145 is prostate carcinoma; ES-2 is ovarian clear cell carcinoma; H460 is large cell lung carcinoma; HELA is cervical adenocarcinoma; MIA PaCa-2 is pancreatice carcinoma; OVCAR-3 is ovarian adenocarcinoma; OVCAR8 is ovarian carcinoma; PC3 is prostate adenocarcinoma; SK-OV-3 is ovarian adenocarcinoma; SU86.86 is pancreatic carcinoma; TOV-21G is avarian clear cell carcinoma; U2OS is bone osteosarcoma; is ASPC-I is pancreatic adenocarcinoma; BXPC-3 is pabcreatic adenocarcinoma; HL60 is promyeloblast promyelocytic leukemia; K562 is bone marrow chronic myelogenous leukemia; L1210 is mouse lymphocytic leukemia; MOLT3 is T lymphoblast acute lymphoblastic leukemia; MOLT4 is T lymphoblast acute lymphoblastic leukemia; SW620 is colorectal adenocarcinoma; THP-1 is monocyte acute monocytic leukemia; U937 is histiocytic lymphoma; and UACC-257 is melanoma.
(§2) Compounds and additional media were added 24 hours after cell plating. […] All compound testing was done in duplicate using 6.3 fold dilutions starting with 10 mM. […] Taxol and at least one additional control were run on all plates. Three microliters of the compound master plate were added to deep well blocks containing 750 μl of RPMI media. One hundred microliters were transferred from the compound/media deep well blocks to the plated cells resulting in a 500 fold dilution of the compounds. Cells were grown at 37° C., 5% CO2 for 48 hours.
(§3) Cells to be analyzed by photography were fixed and stained. One hundred microliters of media were removed and 100 μl of 9.3% formamide was added to each well. Plates were left on the benchtop for 45 minutes. A staining solution containing 1.55 μl of 1 mg/ml DAPI added to 18.75 ml PBS was warmed for 15 minutes at 37° C. The cells were aspirated prior to washing with 100 μl of PBS. Seventy microliters of PBS were aspirated and 170 μl of the DAPI solution were added to each well of fixed cells. Plates were left at room temperature for one hour then aspirated and washed twice with 100 μl of PBS. The stained cells were left at 4° C. for a minimum of 16 hours before photographic analysis with Array Scan II (Cellomics). Analysis of the photographic images to determine numbers of live cells (proliferation), apoptotic cells and dead cells, were according to the methods described in U.S. Utility patent application Ser. No. 10/652,440, which incorporated herein in its entirety.

Experiment [2] concerns H1299 cells. The experiment can be described thus: Cell proliferation PAD assay, H1299. It is filed as cell-based. To be noted: Homo sapiens, 48 hours. The procedure: as §1, §2, §3
[3] abbreviates: NCI-H1299, 3pt, read-out: H1299 3pt.
Where [4] appears, read: NCI-H1299, 6pt, read-out: H1299 6pt.

IC50 data for 14 compounds are collected here from patent US20050282818A1, “Ubiquitin ligase inhibitors” (Rigel Pharmaceuticals, Inc., priority 2004, published 2005).

Molecules are shown by their SMILES. Like-named read-outs stand apart in the source and are kept apart here.

`O=S(=O)(c1cccc2nonc12)N1CCN(c2ncccn2)CC1` [compound 130, 4-[(4-pyrimidin-2-ylpiperazin-1-yl)sulfonyl]-2,1,3-benzoxadiazole]: the IC50 was ≥ 20 µM in experiment [1] (3pt, read-out: A549 3pt) and ≥ 20 µM in experiment [2] (setting [3]).
For `O=S(=O)(c1cccc2nonc12)N1CCN(c2cnccn2)CC1` [compound 131, 4-[(4-pyrazin-2-ylpiperazin-1-yl)sulfonyl]-2,1,3-benzoxadiazole], the IC50 was ≥ 20 µM in experiment [1] (3pt, read-out: A549 3pt) and ≥ 20 µM in experiment [2] (setting [3]).
For `O=S(=O)(c1cccc2nonc12)N1CCN(c2ccc(Cl)c(C(F)(F)F)c2)CC1` [compound 132, 4-({4-[4-chloro-3-(trifluoromethyl)phenyl]piperazin-1-yl}sulfonyl)-2,1,3-benzoxadiazole], the IC50 in experiment [1] (3pt, read-out: A549 3pt) is ≥ 20 µM; in experiment [2] (setting [3]), ≥ 20 µM.
As to `CSc1ccc(-c2ccc([N+](=O)[O-])c3nonc23)cc1` [compound 318, 7-[4-(Methylthio)phenyl]-4-nitro-2,1,3-benzoxadiazole], the IC50 in experiment [1] (6pt, read-out: A549 6pt) was < 1 µM; in experiment [2] (setting [4]), < 1 µM.
Take `COc1cccc(-c2ccc([N+](=O)[O-])c3nonc23)c1` [compound 319, 7-(3-Methoxyphenyl)-4-nitro-2,1,3-benzoxadiazole]: the IC50 in experiment [1] (6pt, read-out: A549 6pt) is < 1 µM; in experiment [2] (setting [4]), < 1 µM.
For `O=[N+]([O-])c1ccc(-c2cccc(F)c2)c2nonc12` [compound 320, 7-(3-Fluorophenyl)-4-nitro-2,1,3-benzoxadiazole], the IC50 was 1 to 20 µM in experiment [1] (6pt, read-out: A549 6pt) and < 1 µM in experiment [2] (setting [4]).
Consider `Cc1cc(C)cc(-c2cc(Cl)c3nonc3c2)c1` [compound 322, 4-Chloro-6-[3,5-(dimethyl)phenyl]-2,1,3-benzoxadiazole], for which the IC50 was ≥ 20 µM in experiment [1] (6pt, read-out: A549 6pt) and ≥ 20 µM in experiment [2] (setting [4]).
Turning to `Cc1cc(C)cc(-c2cc(-c3cc(C)cc(C)c3)c3nonc3c2)c1` [compound 323, 4,6-bis[3,5-(dimethyl)phenyl]-2,1,3-benzoxadiazole], the IC50 is ≥ 20 µM in experiment [1] (6pt, read-out: A549 6pt) and ≥ 20 µM in experiment [2] (setting [4]).
As to `Fc1cc(F)cc(-c2cc(Cl)c3nonc3c2)c1` [compound 324, 4-Chloro-6-[3,5-(difluoro)phenyl]-2,1,3-benzoxadiazole], the IC50 in experiment [1] (6pt, read-out: A549 6pt) was ≥ 20 µM; in experiment [2] (setting [4]), ≥ 20 µM.
With `FC(F)(F)c1cccc(-c2cc(Cl)c3nonc3c2)c1` [compound 325, 4-Chloro-6-[3-(trifluoromethyl)phenyl]-2,1,3-benzoxadiazole], the IC50 in experiment [1] (6pt, read-out: A549 6pt) was ≥ 20 µM; in experiment [2] (setting [4]) it was ≥ 20 µM.
As for `Cc1cccc(-c2cc(Cl)c3nonc3c2)c1` [compound 326, 4-Chloro-6-(3-methylphenyl)-2,1,3-benzoxadiazole], the IC50 in experiment [1] (6pt, read-out: A549 6pt) was ≥ 20 µM; in experiment [2] (setting [4]) it was ≥ 20 µM.
With `FC(F)(F)c1ccc(-c2cc(Cl)c3nonc3c2)cc1` [compound 327, 4-Chloro-6-[4-(trifluoromethyl)phenyl]-2,1,3-benzoxadiazole], the IC50 is ≥ 20 µM in experiment [1] (6pt, read-out: A549 6pt) and ≥ 20 µM in experiment [2] (setting [4]).
As to `COc1cccc(-c2cc(Cl)c3nonc3c2)c1` [compound 328, 4-Chloro-6-(3-methoxyphenyl)-2,1,3-benzoxadiazole], the IC50 in experiment [1] (6pt, read-out: A549 6pt) is ≥ 20 µM; in experiment [2] (setting [4]), ≥ 20 µM.
With `CC(C)(C)c1ccc(-c2cc(Cl)c3nonc3c2)cc1` [compound 329, 4-Chloro-6-(4-(tert-butyl)phenyl)-2,1,3-benzoxadiazole], the IC50 in experiment [1] (6pt, read-out: A549 6pt) was ≥ 20 µM; in experiment [2] (setting [4]), ≥ 20 µM.
